# According to patent US20150083906A1, “BIOMARKERS FOR MONITORING INTERVENTION THERAPIES FOR DIABETES” (MERCK SHARP & DOHME CORP., priority 2012, published 2015):
# “Also recorded” adds a separate entry of the source.
# Columns and labels:
# db/db mice [1] = test: Study 1: plasma N-glycan profile (GLYCANMAP, MALDI-TOF MS) and HbA1c in rosiglitazone-treated db/db mice; type: in vivo; conditions: 10 mpk oral once daily, vs vehicle
# Source text: An initial study (Study 1) was an analysis of 160 plasma samples collected from rosiglitazone-treated mice following oral administration of 10 mpk once daily for up to 39 days. Rosigilitazone is an athiazolidinedione class of antidiabetic drug marketed by Glaxo under the trade name AVANDIA. […] These changes, on an individual N-glycan basis, reached high statistical significance (P<0.001) as early as seven days, a full two weeks prior to changes in HbA1c (day seven vs. day 21, respectively). […]
# The objective of Study 1 was to evaluate N-linked glycosylation changes in plasma proteins that precede and predict the decrease in glycated hemoglobin (HbA1c) associated with successful resolution of diabetes. […] A baseline (Day 0) sample was not analyzed in the initial rosiglitazone study, but was included in the subsequent studies described in Examples 2 and 3.
# GLYCANMAP Assay (a registered trademark of Ezose Sciences, Pine Brook, N.J.): A 10 μL aliquot of each plasma sample was spiked with internal standard (700 pmol) to aid in quantitation. The spiked aliquots were analyzed for N-linked glycans using GLYCANMAP methodology, which is based on the methods previously reported by Nishimura, Furukawa and Miura (Nishimura et al., Angew Chem. Int. Ed. Engl., 44: 91-96 (2004); Furukawa et al., Anal. Chem., 80: 1094-1101 (2008); Miura et al., Chem.-A Eur. J, 13: 4797-4804 (2007)). […]
# db/db mice [2] = test: Study 3: plasma N-glycan profile in insulin detemir-treated db/db mice; type: in vivo; conditions: for Direction of Change, High Mannose glycan 520000 (Man5GlcNAc2) / Direction of Change, High Mannose glycan 620000 (Man6GlcNAc2) / Direction of Change, High Mannose glycan 720000 (Man7GlcNAc2) / Direction of Change, High Mannose glycan 820000 (Man8GlcNAc2) / Direction of Change, Hybrid glycan 430010 / Direction of Change, Hybrid glycan 530010 / Direction of Change, Hybrid glycan 630010: subcutaneous, two doses of 10 U/kg per day, days 7, 14, 21, vs vehicle
# Description: In Study 3, changes in the N-linked glycosylation profile of total serum proteins obtained from diabetic mice were further characterized using a different drug-treatment to determine the drug specificity of the rosiglitazone-induced changes. In an animal study, insulin detemir was administered subcutaneously in two doses of 10 U/kg per day. Samples were collected from insulin detemir and vehicle-treated db/db mice at four time points (0, 7, 14, and 21 days). (Insulin detemir is a long-acting insulin marketed by Novo Nordisk under the trade name LEVEMIR.). […] The high mannose N-glycans that were decreased in the insulin-treated db/db mice were Man8GlcNAc2 (820000), Man7GlcNAc2 (720000), Man6GlcNAc2 (620000), and Man5GlcNAc2 (520000). The hybrid N-glycans that were decreased in the insulin-treated db/db mice were SiaGalGlcNAcMan3GlcNAc2 (430010), SiaGalGlcNAcMan4GlcNAc2 (530010), and SiaGalGlcNAcMan5GlcNAc2 (630010), wherein Sia is Neu5Ac or Neu5Gc.
# The objective of this study was to evaluate the performance of candidate biomarkers discovered using rosiglitazone in mice treated with a diabetes drug with a different mechanism of action. The 16 candidate markers that were identified in Example 1 were evaluated in db/db mice treated with insulin detemir and vehicle.
# In this Example, plasma samples were analyzed from ten db/db mice at baseline (0 days), and 20 db/db mice (ten vehicle and ten insulin detemir) at 7, 14, and 21 days. Sample preparation and analysis followed the protocol described in Example 1.
# Data Analysis: For this study, the analysis was extended to evaluate changes in all detected N-glycans in order to reveal any novel N-glycan changes that might be specific to insulin detemir. The extended analysis was not performed in Study 2, which included only baseline and Day 7 time points since N-glycan changes at Day 7 could not be evaluated to determine if they are sustained over time. Drug-treated and vehicle-treated db/db mice were compared across each time point using the Student's t-test. To evaluate time-dependent changes, each time point within a treatment group was compared to its corresponding Day 0 group. N-glycans which yielded p-values <0.05 in this analysis were considered significant.
# The concentrations of individual N-glycans in insulin detemir- and vehicle-treated db/db mice were compared at each time point using the Student's t-test. […] Time-dependence was also evaluated for each of the candidate markers by comparing each time point to baseline.
# [3] = serum samples, vs non-treated controls
Compound,Time at which highly significant (p<0.001) change in HbA1c was achieved (db/db mice [1]),Change in O-acetylated N-glycans (db/db mice [2]; [3]),Change in fucosylated N-glycans (db/db mice [2]; [3]),Change in tetraantennary N-glycans (db/db mice [2]; [3]),"Direction of Change, High Mannose glycan 520000 (Man5GlcNAc2) (db/db mice [2])","Direction of Change, High Mannose glycan 620000 (Man6GlcNAc2) (db/db mice [2])","Direction of Change, High Mannose glycan 720000 (Man7GlcNAc2) (db/db mice [2])","Direction of Change, High Mannose glycan 820000 (Man8GlcNAc2) (db/db mice [2])","Direction of Change, Hybrid glycan 430010 (db/db mice [2])","Direction of Change, Hybrid glycan 530010 (db/db mice [2])","Direction of Change, Hybrid glycan 630010 (db/db mice [2])","Direction of Change, High Mannose glycan 520000 (Man5GlcNAc2) (db/db mice [2]; listed as Insulin Detemir)","Direction of Change, High Mannose glycan 620000 (Man6GlcNAc2) (db/db mice [2]; listed as Insulin Detemir)","Direction of Change, High Mannose glycan 720000 (Man7GlcNAc2) (db/db mice [2]; listed as Insulin Detemir)","Direction of Change, High Mannose glycan 820000 (Man8GlcNAc2) (db/db mice [2]; listed as Insulin Detemir)","Direction of Change, Hybrid glycan 430010 (db/db mice [2]; listed as Insulin Detemir)","Direction of Change, Hybrid glycan 530010 (db/db mice [2]; listed as Insulin Detemir)","Direction of Change, Hybrid glycan 630010 (db/db mice [2]; listed as Insulin Detemir)"
CN(CCOc1ccc(CC2SC(=O)NC2=O)cc1)c1ccccn1 (stereo not drawn) [rosiglitazone],21 days,,,,,,,,,,,,,,,,,
insulin detemir,,No change,No change,No change,decreased; also recorded: lower,decreased; also recorded: lower,decreased; also recorded: lower,decreased; also recorded: lower,decreases; also recorded: lower,decreases; also recorded: lower,decreases; also recorded: lower,Decreased,Decreased,Decreased,Decreased,Decreased,Decreased,Decreased
